Laboratory results as given in patent publication US20120258975A1, “Potent Small Molecule Inhibitors of Autophagy, and Methods of Use Thereof” (Shanghai Institute of Organic Chemistry, priority 2009, published 2012).
Values joined by “and” are separate entries in the source; they are usually repeats but may differ in a detail not shown here. Identical values can stand only once. Like-named read-outs stand apart in the source and are kept apart here.

How the values were obtained:
[1] = tested on: Vps34 complexes; assay: Levels of transfected Vps34 complex proteins in 293T cells (western blot); type: cell-based; conditions: for levels of GFP-p150 and Atg14L: 10 μM, 4 h; for levels of flag-tagged Beclin1 and HA-Vps34: 12 h
[2] = tested on: PI3P (FYVE-RFP); assay: FYVE-RFP spots in H4-FYVE cells; type: cell-based; conditions: 10 μM; for levels of FYVE-RFP spots: basal and rapamycin treated H4 cells
Protocol: H4-FYVE cells were treated with DMSO (0.1%), MBCQ (10 μM) or C43 (spautin) (10 μM) for indicated time. A, The images were analyzed by fluorescence microscopy and quantified by HCS after fixing in 4% paraformaldehyde and stained with 4,6-diamidino-2-phenylindole (DAPI, 3 μg/mL). Images of 1000 cells for each compound treatment were analyzed by ArrayScan HCS 4.0 Reader with a 20× objective (Cellomics, Pittsburgh, Pa.). B, H4-FYVE cells were treated with DMSO (0.1%), RAPA (0.2 μM) alone, MBCQ (10 μM) or C43 (spautin) (10 μM) with or without RAPA (0.2 uM) for 8 h. The cell lysates were collected for western blotting using anti-RFP and anti-tubulin as a loading control.
The levels of PtdIns3P (PI3P) are known to play a critical role in mediating autophagy (Levine, B., and Klionsky, D. J. (2004). Development by self-digestion: molecular mechanisms and biological functions of autophagy. Dev Cell 6, 463-477). To ask if MBCQ has an effect on PI3P, H4 cells expressing FYVE-RFP were used. FYVE binds specifically to PI3P and is widely used as a marker for cellular levels for PI3P (Gaullier, J. M., Simonsen, A., D'Arrigo, A., Bremnes, B., Stenmark, H., and Aasland, R. (1998). FYVE fingers bind PtdIns(3)P. Nature 394, 432-433).

[3] = tested on: LC3II in liver; assay: Autophagy in liver of rapamycin injected mice; type: in vivo; conditions: rapamycin 10 mg/kg, 40 mg/kg intraperitoneally every hour for 4 h
Protocol: FIG. 13 depicts results showing the effect of MBCQ and derivatives in vivo. (A) Mice were injected with rapamycin (10 mg/kg) alone as a positive control, or with C43 or MBCQ (40 mg/kg) intraperitoneally every hour for 4 h and then sacrificed at 5 th h. The autophagy levels in liver were analyzed by western blotting using anti-LC3 antibody. (B) C43 reduces the levels of autophagy induced by cerulein. Rats were injected intraperitoneally with cerulein (50 μg/kg) alone or with C43 (40 mg/kg) hourly for 4 times. The rats were sacrificed at one h after the last injection and the pancreas were isolated for western blotting analysis using anti-LC3 and anti-tubulin (as a control).
To begin to test the effect of MBCQ derivatives in vivo, the ability of MBCQ derivatives to inhibit autophagy in rapamycin injected mice was investigated. Mice were injected with rapamycin (10 mg/kg) alone as a positive control, or with C43 or MBCQ (40 mg/kg) intraperitoneally every hour for 4 h and then sacrificed at the fifth hour. The autophagy levels in liver were then analyzed by western blotting using anti-LC3 antibody. […] Thus, it was determined that C43 and MBCQ are both active in vivo in inhibiting autophagy.

[4] = tested on: Vps34 complexes; assay: Levels of endogenous Beclin1, Vps34, Atg14L in H4 and 293T cells (western blot); conditions: for levels of endogenous Beclin1 in the presence of CHX: 293T cells, 6 h, versus CHX alone; for levels of endogenous Beclin1, Vps34 and Atg14L: H4 cells and 293T cells, 10 μM, 3-MA 10 mM
Protocol: Twenty-four hours after the transfection, the cells were treated with indicated compounds for 12 h. The cell lysates were analyzed by western blotting using anti-HA, anti-flag or anti-tubulin. […] The cell lysates were harvested and analyzed by western blotting using: anti-Beclin1, anti-Atg14, anti-Vps34 and anti-UVRAG. Anti-α-tubulin was used as loading controls. […] The cell lysates were harvested and analyzed by western blotting using: anti-Beclin1 and anti-LC3. Anti-α-tubulin was used as loading controls.

[5] = tested on: LC3-GFP (H4-LC3 cells); assay: LC3-GFP image-based autophagy assay in H4-LC3 cells; type: cell-based
Protocol: FIG. 1 relates to identification of a small molecule inhibitor of autophagy by an image-based screen. A, structure of MBCQ. B, Quantitative analysis of LC3-GFP spot number per cell (a), spot size per cell (b), spot intensity per cell (c). The data are expressed as % of control vehicle treated cells. H4-LC3 cells were seeded in 96 well-plates and incubated with vehicle control (1% DMSO), 0.2 μM rapamycin with or without 10 μM MBCQ for indicated time, fixed with 4% paraformaldehyde and stained with 4,6-diamidino-2-phenylindole (DAPI, 3 μg/ml). Images of 1000 cells for each compound treatment were analyzed by ArrayScan HCS 4.0 Reader with a 20× objective (Cellomics, Pittsburgh, Pa.).
(§1) FIG. 14 depicts MBCQ derivatives that can inhibit autophagy. To calculate EC50, H4-LC3 cells were seeded in 96 well-plates and cultured in the presence of compounds in different concentration for 24 h, and then fixed with polyformate and stained with 4,6-diamidino-2-phenylindole (DAPI, 3 μg/ml). Images data were collected with an ArrayScan HCS 4.0 Reader with a 20× objective (Cellomics, Pittsburgh, Pa.) for DAPI labeled nuclei and GFP-LC3, a marker for autophagy. The Spot Detector Bio-Application was used to acquire and analyze the images after optimization. Images of 1000 cells for each compound treatment were analyzed to obtain average cell number per field, fluorescence spot number, area and intensity per cell. DMSO and rapamycin were used as negative or positive control, respectively. The percentages of changes of LC3-GFP were calculated by dividing with that of DMSO treated samples. Each treatment was done in triplicate for mean and SD. The images were also analyzed using a conventional fluorescence microscope for visual inspection. The experiments were repeated three times
as §1, with “15” for “14”, “with reduced or no ability to” for “that can”, “times.” for “times”
To explore the mechanism of autophagy and identify additional small molecules that can activate it, a high-throughput image-based screen for autophagy regulators was developed. This system takes advantage of the localization of light chain 3 coupled to GFP (LC3-GFP) to autophagosomal membrane upon induction of autophagy (Zhang, L., Yu, J., Pan, H., Hu, P., Hao, Y., Cai, W., Zhu, H., Yu, A. D., Xie, X., Ma, D., et al. (2007). Small molecule regulators of autophagy identified by an image-based high-throughput screen. Proc Natl Acad Sci USA 104, 19023-19028). […] Compounds that increase cellular levels of LC3-GFP, however, are not necessarily able to increase degradative activity of autophagy. Instead, the increases of LC3-GFP may be associated with cell death or may be a result of lysosomal defect and thus associated with blockage of autophagy. […]

SMILES	levels of GFP-p150 and Atg14L [1]	levels of flag-tagged Beclin1 and HA-Vps34 [1]	degradation of GFP-Beclin1, pathway ([1]; with MG132 or NH4Cl)	protein levels of FYVE-RFP by western blotting [2]	levels of FYVE-RFP spots [2]	levels of LC3II in liver [3]	levels of endogenous Beclin1 in the presence of CHX [4]	levels of endogenous Beclin1, Vps34 and Atg14L [4]	IC50 ([5]; cell-based assays, read-out: IC50, inhibition of autophagy)	fold more potent than 3-MA ([5]; IC50 versus 3-MA working concentration of 10 mM)	LC3-GFP dots (number, spot size, spot intensity) ([5]; basal and rapamycin (0.2 μM) stimulated, 10 μM MBCQ)	IC50 ([5]; rapamycin and MBCQ together versus rapamycin alone, read-out: IC50 (intensity of LC3-GFP))
Fc1ccc(CNc2ncnc3ccc(F)cc23)cc1 [C43, 6-fluoro-N-(4-fluorobenzyl)quinazolin-4-amine]	reduced the levels	considerably lower	promotes the degradation of Beclin1 through the proteasomal pathway	no effect on the protein levels of FYVE-RFP	reduce FYVE-RFP spots	significantly reduced the levels of LC3II	notably lower	reduce the levels of endogenous Beclin1, Vps34 and Atg14L	0.87 µM and ~0.8 µM	–	–	–
Clc1ccc2ncnc(NCc3ccc4c(c3)OCO4)c2c1 [MBCQ]	reduced the levels	considerably lower	–	–	rapidly and effectively reduced the levels of FYVE-RFP spots	significantly reduced the levels of LC3II	notably lower	reduce the levels of endogenous Beclin1, Vps34 and Atg14L	–	about 10,000 fold	reduced the number, spot size as well as spot intensity	0.788 µM
